Columns and labels:
[1] = tested on: Human airway smooth muscle (HASM) cells; assay: Thrombin-induced proliferation of human airway smooth muscle (HASM) cells, cell number after 48 h; assay type: cell-based; details: for IC50: Homo sapiens, read-out: HASM-Thr pIC50 (converted); for IC50 / HASM-Thr pIC50: negative log of the concentration that reduces the thrombin-induced proliferative response by 50%, pIC50 of 4.00 = inactive; for HASM- Thr pIC25 / HASM- Thr pIC75: two site model, thrombin-induced proliferation; for HASM- Thr pIC25: first phase (inhibition up to 50%); for HASM- Thr pIC75: second phase (inhibition up to 100%); for Cell number (% control) Thrombin (0.3 U/ml): 30 min pre-incubation, mean ± SEM (n), without analogue 133.5 ± 4.1; for Cell number (% control) Thrombin (0.3 U/ml) / inhibition of thrombin-mediated HASM proliferation, in words (FIG. 1): 48 h; for inhibition of thrombin-mediated HASM proliferation, in words (FIG. 1): thrombin 0.3 U/ml
Summary of the method: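 Primary human bronchial smooth muscle cells seeded at 1.5×10^4 cells/cm², serum-starved 24 h, pre-incubated with compound 30 min, then stimulated 48 h with thrombin 0.3 U/ml. Cells counted by haemocytometer with trypan blue; pIC50 as negative log concentration halving proliferative response.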

[2] = tested on: GM-CSF production by Human Airway Smooth Muscle Cells; assay: Interleukin-1α-mediated GM-CSF production by HASM cells (ELISA); assay type: cell-based; details: for HASM - GM-CSF: inhibition of interleukin-1α (1 ng/ml)-mediated GM-CSF production, concentration not given, * not defined
[3] = tested on: bovine aortic vascular smooth muscle; assay: bFGF-induced proliferation of bovine aortic vascular smooth muscle; assay type: cell-based; details: 3 μM
Description: Experiments were also carried out with bovine aortic vascular smooth muscle with a more limited set of compounds.

[4] = tested on: HASM cells; assay: Shape of HASM cells in the presence of thrombin; assay type: cell-based, human; details: thrombin 0.3 U/mL, 48 h
Description: The effects of 2MEO and 4NOM on the shape of HASM in the presence thrombin (0.3 U/mL) was investigated. Analogues were pre-incubated with HASM for 30 min before the addition of thrombin. The incubation continued for 48 h before capturing images of the HASM.

[5] = tested on: HASM cells; assay: PDGF(BB)-induced migration of HASM cells (modified Boyden chamber); assay type: cell-based, human; details: PDGF(BB) 1 ng/ml, 5 h, 30 min pre-treatment
Description: Costar transwell culture inserts (Corning Inc, USA) with 6.5 mm diameter and […] were coated overnight at 4° C. with 0.1% gelatin (Bovine skin; Sigma, USA) prior to the commencement of the assay (modified Boyden chamber assay). HASM cells were deprived of serum for 24 h prior to the commencement of the assay. Cells were added to the upper side of the transwell inserts with or without 30 min pre-treatment with one of the test compounds. Platelet-derived growth factor(BB) (1 ng/ml) was added to the lower compartment to stimulate cell migration and the chambers and cells left for 5 h. After this period the membranes with the adherent cells were washed with PBS, and fixed for 2 min with DiffQuick (Lab Aids, Aus) fixative and then stained with DiffQuick. Membranes were then washed twice in PBS, peeled off the inserts and placed onto slides. Membranes were visualised by light microscopy, and the number of migrated cells in five fields (×400) were counted in triplicate.
The numbers of HASM appearing on the underside of the porous membrane was counted and the responses were expressed as a percentage of the number of cells migrating in response to PDGF in the absence of pre-treatment.

[6] = tested on: Human airway smooth muscle (HASM) cells; assay: bFGF-induced proliferation of human airway smooth muscle (HASM) cells, cell number after 48 h; assay type: cell-based; details: bFGF 300 pM, mean ± SEM (n), without analogue 135.8 ± 3.7
Description: Human airway smooth muscle (HASM) cells were cultured from macroscopically normal bronchi (0.5-2 cm diameter) obtained from lung resection or heart-lung transplant specimens provided by the Alfred Hospital (Melbourne) according to methods published in detail previously (Fernandes et al., 1999).
Approximately 0.1 g of smooth muscle was stripped from the wall of the bronchus for each cell culture. Dissected tissue was immersed in Dulbecco's modified Eagle's medium (DMEM) (Flow Laboratories, Scotland), supplemented with 100 U/mL penicillin G (CSL, Australia) and 100 ug/mL streptomycin (CSL, Australia). The tissue was rinsed in phosphate buffered saline (PBS; Oxoid, England) and the airway smooth muscle was chopped into 2 mm^3 pieces and digested for 2 hours in DMEM containing elastase (0.5 mg/mL: Worthington Biochemical, USA) followed by a 12 hour incubation in DMEM containing collagenase (1 mg/mL) (Worthington Biochemical, USA), at 37° C. with agitation.
The resulting cell suspension was centrifuged and washed three times in phosphate buffered saline (PBS). Following the last centrifugation step, the cells were resuspended in 25 mL of DMEM supplemented with L-glutamine (2 mM: Sigma, USA), penicillin G (100 U/mL), streptomycin (100 μg/mL), amphotericin B (2 μg/mL: Wellcome, UK) and heat-inactivated FCS (10% v/v: CSL, Australia) and seeded into 25 cm^2 culture flasks. The primary isolates were incubated for 7 to 14 days to reach confluence.
Cells were harvested weekly by 10 min exposure to trypsin (0.5%: CSL, Australia) and EDTA (1 mM in PBS: BDH, Australia) and passaged at a 1:3 ratio into 75 cm^2 flasks.
The activity of the compounds has been established in cell culture by exploring their effects on mitogen-induced increases in cell number. […]
Data are expressed as a percentage of the cell number in vehicle treated wells and are presented as the mean and standard error of the mean.

[7] = tested on: NIH3T3 cells; assay: Thrombin-induced proliferation of NIH3T3 cells; assay type: cell-based; details: concentration not given

Structure (SMILES) | IC50 [1] [µM] | HASM- Thr pIC25 [1] | HASM- Thr pIC75 [1] | HASM - GM-CSF [2] | Cell number (% control) Thrombin (0.3 U/ml) ([1]; analogue 10 μM) | HASM-Thr pIC50 [1] | reduction of bFGF (300 pM) induced proliferation [3] [%] | effect on the shape of HASM cells ([4]; 10 μM) | migration in response to PDGF [5] | Cell number (% control) bFGF ([6]; analogue 10 μM) | Cell number (% control) Thrombin (0.3 U/ml) ([1]; analogue 1 μM) | inhibition of thrombin-mediated HASM proliferation, in words (FIG. 1) [1] | inhibitory effect on thrombin-induced proliferation [7] [%] | Cell number (% control) bFGF ([6]; analogue 1 μM) | reduction of GM-CSF production, in words (FIG. 7) ([2]; interleukin-1α 1 ng/ml) | effect on the shape of HASM cells ([4]; 1 μM)
COc1cc2c(cc1O)/C(=N/OCc1cc(F)cc(F)c1)C[C@@H]1[C@@H]2CC[C@]2(C)[C@@H](O)CC[C@@H]12 [CP-DM-4-35, 6-(3,5-difluorobenzyloxy)imino-2-methoxyestradiol] | 0.141 | 7.80 | 5.75 | – | – | – | – | – | – | – | – | – | – | – | – | –
COc1cc2c(cc1O)CC[C@@H]1[C@@H]2CC[C@]2(C)[C@@H](O)CC[C@@H]12 [2-methoxyestradiol, reference compound] | – | 5.94 | 4.98 | 29 ± 10* | 100.9 ± 8.1 (13) % control | 5.49 | 87±6 | caused extensive rounding of cells | significantly reduced levels of migration | 87.5 ± 13.8 (4) % control | – | – | – | – | – | –
COc1cc2c(cc1O)C(=NOCc1ccc([N+](=O)[O-])cc1)C[C@@H]1[C@@H]2CC[C@]2(C)C(=NO)CC[C@@H]12 [CP-DM-3-91, 2-methoxy-6-(4-nitrobenzyloxy)iminoestrone-17-oxime] | – | 10.32 | 5.70 | 43 ± 11* | – | 7.59 | 93±4 | – | – | – | 117.5 ± 8.5 (8) % control | considerably more potent than either 2MEO or 4NO | 68±10 | 111.1 ± 10.9 (4) % control | – | –
COc1cc2c(cc1O)/C(=N/OCc1ccc(SC(F)(F)F)cc1)C[C@@H]1[C@@H]2CC[C@]2(C)[C@@H](O)CC[C@@H]12 [CP-DM-4-65, 2-methoxy-6-(4-trifluoromethylthiobenzyloxy)iminoestradiol] | 0.224 | – | – | 28 ± 31 | – | – | – | – | – | – | – | – | – | – | – | –
C[C@]12CC[C@@H]3c4ccc(O)cc4CC[C@H]3[C@@H]1CC/C2=N\OCc1cccc([N+](=O)[O-])c1 [CP-DM-3-102, estrone-17-(3-nitrobenzyl)oxime] | 0.0891 | 8.03 | 5.99 | – | – | – | – | – | – | – | – | – | – | – | – | –
COc1cc2c(cc1O)C(=NOCc1ccc([N+](=O)[O-])cc1)C[C@@H]1[C@@H]2CC[C@]2(C)[C@@H](O)CC[C@@H]12 [CP-DM-2-11-7, 2-methoxy-6-(4-nitrobenzyloxy)iminoestradiol] | – | 8.82 | 5.66 | 45 ± 8* | – | 6.90 | 75±14 | – | significantly reduced levels of migration | – | 111.1 ± 6.9 (13) % control | inhibitory activity on proliferation of HASM cells over a wide concentration range (10 nM to 10 μM) | 26±12 | 116.6 ± 6.6 (14) % control | reduced GM-CSF production to greater extent than 2MEO | no detectable effects on the shape of the HASM cells
